Data from patent US8974848B1, “Ingestible product and method for enhancing the appearance and quality of teeth in-vivo” (priority 2008, dated 2015).

Columns and labels:
[1] = accelerated coffee staining test: hydroxyapatite disks immersed in concentrated coffee with or without additive; details: 7 minutes immersion in coffee (11 grams grounds to 0.5 cups water); uniform scale, 0 = un-stained disk, 5 = coffee without additive
Procedure: Initially, an accelerated staining test was performed using a very strong coffee concentrate with short periods of immersion. This protocol emulates the actual oral staining process; i.e., live teeth aren't generally submerged in coffee for long periods of time since coffee is only held in the mouth for short periods of time, and the residues are rapidly diluted by saliva. In addition, coffee chemistry and pH changes rapidly due to temperature-excited oxidation—which results in significant acid formation in the first 20 minutes after brewing. As a result, coffee immersion in-vitro for times exceeding 20 minutes exposes test-items to a chemical environment which is not representative of that found in a mouth during a typical human consumption of coffee.
As one representative example of multiple tests using CHITOSAN NICOTINATE as an essential substance to prevent staining of hydroxyapatite (as found in tooth enamel), 0.02 grams of CHITOSAN NICOTINATE was placed in one of two containers of coffee brewed with 11.0 grams of coffee grounds to 0.5 cups water. Then disks made of hydroxyapatite were immersed in each container for 7 minutes time; and subsequently compared to establish the degree of staining. For meaningful comparisons of staining, the non-CHITOSAN NICOTINATE coffee was used as the dark stain standard, with an arbitrary value of 5. […]

[2] = stain reversal: coffee-stained hydroxyapatite disk immersed in brewed coffee containing additive; details: previously coffee-stained disk immersed 15 minutes in brewed coffee with additive; original stain 100%, un-stained disk 0%
Procedure: In addition, when a previously-coffee-stained hydroxyapatite disk was half-immersed within the brewed coffee for 15 minutes, the coffee-immersed area was lightened by 10%, where the original stain is said to be 100% and an un-stained disk is said to be 0%.
As one example of multiple tests using protein-splitting enzymes as an essential ingredient to reverse staining of hydroxyapatite, 20 mg of Papain was placed in one container of coffee, which was then brewed with 11 grams of coffee grounds to 0.5 cups water. For this series of tests, only coffee-stained hydroxyapatite disks were then immersed in the freshly brewed coffee for 15 minutes time.

| Molecule | degree of staining of hydroxyapatite disks [1] | coffee-immersed stained area lightened by [2] |
| --- | --- | --- |
| CS(C)(=O)=O [METHYLSULFONYLMETHANE (DIMETHYLSULFONE), METHYLSULFONYLMETHANE] | 2 |  |
| Papain: protein-splitting enzyme, plant protease (protein, UniProt P00784 134-345, looked up) Papain: IPEYVDWRQKGAVTPVKNQGSCGSCWAFSAVVTIEGIIKIRTGNLNEYSEQELLDCDRRSYGCNGGYPWSALQLVAQYGIHYRNTYPYEGVQRYCRSREKGPYAAKTDGVRQVQPYNEGALLYSIANQPVSVVLEAAGKDFQLYRGGIFVGPCGNKVDHAVAAVGYGPNYILIKNSWGTGWGENGYIRIKRGTGNSYGVCGLYTSSFYPVKN |  | 20% |
